The target of assay [1] is T1, HIS1 (Oryza sativa, UniProt A0A7G1K8F5).
T1 sequence (A0A7G1K8F5 1-351): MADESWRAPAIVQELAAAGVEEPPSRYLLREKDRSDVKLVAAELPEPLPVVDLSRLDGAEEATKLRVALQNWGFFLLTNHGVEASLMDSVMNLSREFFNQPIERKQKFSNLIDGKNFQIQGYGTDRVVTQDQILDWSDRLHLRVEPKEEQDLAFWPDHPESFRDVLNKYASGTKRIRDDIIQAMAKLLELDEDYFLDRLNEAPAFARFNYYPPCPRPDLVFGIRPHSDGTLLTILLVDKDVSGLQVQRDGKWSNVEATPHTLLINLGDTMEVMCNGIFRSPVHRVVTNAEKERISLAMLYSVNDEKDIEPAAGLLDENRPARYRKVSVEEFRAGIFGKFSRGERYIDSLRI
Put plainly: HPLC of BBC-OH hydroxylation. It is filed as biochemical.

For assay [2], the target named is T2, OsHSL1 (Oryza sativa, UniProt A0A7G1K9G4).
T2 sequence (A0A7G1K9G4 1-350): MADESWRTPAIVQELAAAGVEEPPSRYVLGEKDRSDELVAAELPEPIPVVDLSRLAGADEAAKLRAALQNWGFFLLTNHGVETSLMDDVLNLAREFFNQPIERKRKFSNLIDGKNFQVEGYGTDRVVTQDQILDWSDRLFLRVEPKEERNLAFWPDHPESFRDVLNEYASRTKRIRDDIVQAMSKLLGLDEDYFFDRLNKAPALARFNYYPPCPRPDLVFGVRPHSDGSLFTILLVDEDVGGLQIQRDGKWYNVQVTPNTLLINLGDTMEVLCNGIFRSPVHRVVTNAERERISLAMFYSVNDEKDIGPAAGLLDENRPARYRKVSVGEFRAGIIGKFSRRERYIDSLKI
Put plainly: HPLC of TFT conversion. It counts as biochemical.

Molecules are shown by their SMILES.

The term IC50 denotes the point on the concentration scale where inhibition reaches its midpoint. Lower therefore signals inhibition by little substance. For `CCC(=O)C1C(=O)CC(C(=O)O)CC1=O` (centres unmarked) [prohexadione, 3,5-dioxo-4-propionylcyclohexanecarboxylic acid], the midpoint of inhibition in assay [1], the IC50, lay at 50 µM.

In the case of `CCOC(=O)C1CC(=O)C(=C(O)C2CC2)C(=O)C1` (centres unmarked) [TE, ethyl-(3-oxido-4-cyclopropionyl-5-oxo) oxo-3-cyclohexenecarboxylate], in assay [2], the 50% inhibitory concentration (IC50) was around 125 µM.
